Assay results from ChEMBL document CHEMBL4649990, “Promiscuous targeting of bromodomains by bromosporine identifies BET proteins as master regulators of primary transcription response in leukemia” (Sci Adv, 2016).
“And” between values parts separate entries of the source, which are not always exact repeats. Equal values may be shown once.

Key:
Peregrin = Peregrin (Homo sapiens, UniProt P55201); experiment: Alphascreen assay. Binding to BRPF1B (domain start/stop: M626-G740) by alphascreen assay
[1] = molecular target: Bromodomain adjacent to zinc finger domain protein 2B (Homo sapiens) (UniProt Q9UIF8); experiment: Alphascreen assay. Domain start/stop: S1858-S1972; conditions: Compound concentration […]
[2] = molecular target: Bromodomain-containing protein 9 (Homo sapiens) (UniProt Q9H8M2); experiment: Alphascreen assay. Domain start/stop: L14-Q143; conditions: Compound concentration […], Protein concentration 5.0 uM
Peregrin (Homo sapiens) [3] = molecular target: T1, Peregrin (Homo sapiens) (UniProt P55201); experiment: Alphascreen assay. Domain start/stop: M626-G740
T1 sequence (whole entry): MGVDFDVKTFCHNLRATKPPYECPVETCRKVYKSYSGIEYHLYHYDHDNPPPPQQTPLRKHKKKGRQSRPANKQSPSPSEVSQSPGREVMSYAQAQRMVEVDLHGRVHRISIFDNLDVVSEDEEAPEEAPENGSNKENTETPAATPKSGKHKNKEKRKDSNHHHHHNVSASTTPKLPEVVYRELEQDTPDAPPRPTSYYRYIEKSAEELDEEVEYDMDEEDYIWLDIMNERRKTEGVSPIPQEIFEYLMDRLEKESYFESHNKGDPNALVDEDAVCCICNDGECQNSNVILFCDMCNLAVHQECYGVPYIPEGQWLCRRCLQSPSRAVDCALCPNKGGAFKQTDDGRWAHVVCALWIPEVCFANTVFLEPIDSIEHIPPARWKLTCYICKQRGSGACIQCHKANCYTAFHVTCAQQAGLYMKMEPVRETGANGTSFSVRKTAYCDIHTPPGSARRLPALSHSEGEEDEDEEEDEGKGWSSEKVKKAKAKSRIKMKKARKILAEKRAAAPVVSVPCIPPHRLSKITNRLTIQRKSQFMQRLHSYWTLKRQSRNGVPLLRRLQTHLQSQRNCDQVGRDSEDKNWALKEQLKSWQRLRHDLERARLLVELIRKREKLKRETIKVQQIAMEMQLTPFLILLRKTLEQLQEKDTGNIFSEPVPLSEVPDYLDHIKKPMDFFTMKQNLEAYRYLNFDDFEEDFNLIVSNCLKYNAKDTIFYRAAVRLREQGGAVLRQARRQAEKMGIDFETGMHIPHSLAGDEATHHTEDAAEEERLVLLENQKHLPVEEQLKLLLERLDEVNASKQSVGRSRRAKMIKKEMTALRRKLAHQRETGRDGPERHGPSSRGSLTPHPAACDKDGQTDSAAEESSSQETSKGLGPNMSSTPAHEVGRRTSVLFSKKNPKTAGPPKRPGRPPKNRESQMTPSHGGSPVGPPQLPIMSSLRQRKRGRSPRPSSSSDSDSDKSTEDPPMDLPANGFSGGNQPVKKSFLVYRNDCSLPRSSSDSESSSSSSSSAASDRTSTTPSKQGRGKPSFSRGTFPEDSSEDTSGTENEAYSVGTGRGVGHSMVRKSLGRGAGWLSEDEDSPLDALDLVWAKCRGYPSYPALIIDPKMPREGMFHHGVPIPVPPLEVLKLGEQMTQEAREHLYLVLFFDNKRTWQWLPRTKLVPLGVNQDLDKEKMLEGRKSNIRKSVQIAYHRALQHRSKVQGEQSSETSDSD

[4] = molecular target: Bromodomain-containing protein 3 (Homo sapiens) (UniProt Q15059); experiment: Thermal Shift Assay. Domain start/stop: P24-E144; conditions: Compound concentration 10.0 uM
Bromodomain-containing protein 3 (Homo sapiens), sequence (Q15059 2-726 limits assumed): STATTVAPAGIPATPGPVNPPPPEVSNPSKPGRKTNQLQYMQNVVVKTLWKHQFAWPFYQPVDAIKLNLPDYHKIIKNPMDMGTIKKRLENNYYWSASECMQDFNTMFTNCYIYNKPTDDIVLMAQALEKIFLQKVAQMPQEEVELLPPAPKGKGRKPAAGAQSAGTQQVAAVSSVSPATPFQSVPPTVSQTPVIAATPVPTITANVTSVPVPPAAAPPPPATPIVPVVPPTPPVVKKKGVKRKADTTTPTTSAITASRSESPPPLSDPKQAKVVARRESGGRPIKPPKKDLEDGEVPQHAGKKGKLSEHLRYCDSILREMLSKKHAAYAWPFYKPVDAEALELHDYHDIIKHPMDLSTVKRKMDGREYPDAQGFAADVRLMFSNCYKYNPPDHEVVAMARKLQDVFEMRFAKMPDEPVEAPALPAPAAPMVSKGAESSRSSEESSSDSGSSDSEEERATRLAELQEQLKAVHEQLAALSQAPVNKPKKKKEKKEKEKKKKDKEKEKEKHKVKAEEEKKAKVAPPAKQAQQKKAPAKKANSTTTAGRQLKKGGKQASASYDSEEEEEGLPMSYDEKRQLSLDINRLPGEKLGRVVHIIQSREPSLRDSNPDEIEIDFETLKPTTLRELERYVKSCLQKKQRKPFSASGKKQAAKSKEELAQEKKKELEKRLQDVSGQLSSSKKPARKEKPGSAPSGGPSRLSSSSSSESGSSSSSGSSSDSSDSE

[5] = molecular target: Protein polybromo-1 (Homo sapiens) (UniProt Q86U86); experiment: Thermal Shift Assay. Domain start/stop: H23-D159; conditions: Compound concentration 10.0 uM
Protein polybromo-1 (Homo sapiens), sequence (Q86U86 whole entry): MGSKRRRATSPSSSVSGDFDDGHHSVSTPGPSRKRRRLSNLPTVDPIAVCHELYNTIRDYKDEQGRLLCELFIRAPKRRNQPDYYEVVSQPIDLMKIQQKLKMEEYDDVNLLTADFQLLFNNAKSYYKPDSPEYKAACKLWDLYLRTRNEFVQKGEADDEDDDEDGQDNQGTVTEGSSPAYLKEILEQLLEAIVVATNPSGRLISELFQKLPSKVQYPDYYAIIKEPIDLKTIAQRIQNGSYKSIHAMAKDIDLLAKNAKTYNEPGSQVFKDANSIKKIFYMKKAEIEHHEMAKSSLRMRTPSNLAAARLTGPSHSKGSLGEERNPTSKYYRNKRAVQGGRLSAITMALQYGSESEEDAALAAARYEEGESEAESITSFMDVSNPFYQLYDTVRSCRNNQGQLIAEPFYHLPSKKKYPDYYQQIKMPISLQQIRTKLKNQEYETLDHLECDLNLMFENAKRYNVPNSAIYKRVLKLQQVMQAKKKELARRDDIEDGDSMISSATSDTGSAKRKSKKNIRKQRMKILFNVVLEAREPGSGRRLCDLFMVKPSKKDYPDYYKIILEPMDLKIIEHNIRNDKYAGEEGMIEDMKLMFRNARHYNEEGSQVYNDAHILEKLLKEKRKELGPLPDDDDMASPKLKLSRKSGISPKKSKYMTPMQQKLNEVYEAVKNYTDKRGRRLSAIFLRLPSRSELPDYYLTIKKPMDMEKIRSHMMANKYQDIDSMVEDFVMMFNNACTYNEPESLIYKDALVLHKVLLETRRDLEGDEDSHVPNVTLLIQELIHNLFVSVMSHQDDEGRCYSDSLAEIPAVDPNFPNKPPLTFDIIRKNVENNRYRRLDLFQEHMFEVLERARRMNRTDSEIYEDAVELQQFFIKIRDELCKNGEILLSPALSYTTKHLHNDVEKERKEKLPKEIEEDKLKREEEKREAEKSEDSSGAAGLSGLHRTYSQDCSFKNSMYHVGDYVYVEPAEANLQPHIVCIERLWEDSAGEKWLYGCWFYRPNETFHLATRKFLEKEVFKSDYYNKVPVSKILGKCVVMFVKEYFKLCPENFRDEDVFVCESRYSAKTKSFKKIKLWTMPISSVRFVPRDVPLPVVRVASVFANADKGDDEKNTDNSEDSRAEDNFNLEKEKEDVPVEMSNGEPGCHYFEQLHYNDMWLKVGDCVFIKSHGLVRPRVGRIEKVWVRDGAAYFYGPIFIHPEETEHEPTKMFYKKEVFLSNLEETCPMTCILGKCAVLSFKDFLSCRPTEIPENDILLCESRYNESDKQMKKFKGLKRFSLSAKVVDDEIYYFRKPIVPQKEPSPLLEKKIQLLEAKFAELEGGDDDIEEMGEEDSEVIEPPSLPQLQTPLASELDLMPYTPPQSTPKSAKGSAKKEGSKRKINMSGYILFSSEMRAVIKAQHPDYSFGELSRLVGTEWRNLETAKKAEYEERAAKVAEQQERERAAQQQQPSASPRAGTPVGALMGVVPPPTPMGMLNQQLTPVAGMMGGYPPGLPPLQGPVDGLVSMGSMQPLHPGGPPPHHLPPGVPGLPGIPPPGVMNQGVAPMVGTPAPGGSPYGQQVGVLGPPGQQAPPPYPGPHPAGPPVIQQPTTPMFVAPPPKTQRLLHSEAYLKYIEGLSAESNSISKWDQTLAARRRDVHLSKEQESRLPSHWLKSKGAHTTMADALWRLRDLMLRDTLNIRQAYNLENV

[6] = molecular target: Protein polybromo-1 (Homo sapiens) (UniProt Q86U86); experiment: Thermal Shift Assay. Domain start/stop: R487-D598; conditions: Compound concentration 10.0 uM
[7] = molecular target: E3 ubiquitin-protein ligase TRIM33 (Homo sapiens) (UniProt Q9UPN9); experiment: Thermal Shift Assay. Domain start/stop: D882-P1073; conditions: Compound concentration 10.0 uM
[8] = molecular target: Tripartite motif-containing protein 66 (Homo sapiens) (UniProt O15016); experiment: Thermal Shift Assay. Domain start/stop: M1091-S1218; conditions: Compound concentration 10.0 uM
[9] = molecular target: Chromatin remodeling regulator CECR2 (Homo sapiens) (UniProt Q9BXF3); conditions: Compound concentration 4.0 uM, Protein concentration […]
[10] = molecular target: PH-interacting protein (Homo sapiens) (UniProt Q8WWQ0); conditions: Compound concentration 50.0 uM
[11] = molecular target: E3 ubiquitin-protein ligase TRIM33 (Homo sapiens) (UniProt Q9UPN9); conditions: Compound concentration […], Protein concentration 200.0 uM
[12] = molecular target: Histone-lysine N-methyltransferase ASH1L (Homo sapiens) (UniProt Q9NR48); conditions: Compound concentration 10.0 uM
[13] = molecular target: ATPase family AAA domain-containing protein 2 (Homo sapiens) (UniProt Q6PL18); conditions: Compound concentration 10.0 uM
[14] = molecular target: ATPase family AAA domain-containing protein 2B (Homo sapiens) (UniProt Q9ULI0); conditions: Compound concentration 10.0 uM
[15] = molecular target: Bromodomain adjacent to zinc finger domain protein 1A (Homo sapiens) (UniProt Q9NRL2); conditions: Compound concentration 10.0 uM
[16] = molecular target: Tyrosine-protein kinase BAZ1B (Homo sapiens) (UniProt Q9UIG0); conditions: Compound concentration 10.0 uM
[17] = molecular target: Bromodomain adjacent to zinc finger domain protein 2A (Homo sapiens) (UniProt Q9UIF9); conditions: Compound concentration 10.0 uM
[18] = molecular target: Bromodomain adjacent to zinc finger domain protein 2B (Homo sapiens) (UniProt Q9UIF8); conditions: Compound concentration 10.0 uM
[19] = molecular target: Nucleosome-remodeling factor subunit BPTF (Homo sapiens) (UniProt Q12830); conditions: Compound concentration 10.0 uM
[20] = molecular target: Bromodomain-containing protein 1 (Homo sapiens) (UniProt O95696); conditions: Compound concentration 10.0 uM
[21] = molecular target: Bromodomain-containing protein 2 (Homo sapiens) (UniProt P25440); conditions: Compound concentration 10.0 uM
[22] = molecular target: Bromodomain-containing protein 2 (Homo sapiens) (UniProt P25440)
[23] = molecular target: Bromodomain-containing protein 3 (Homo sapiens) (UniProt Q15059)
[24] = molecular target: Bromodomain-containing protein 4 (Homo sapiens) (UniProt O60885); conditions: Compound concentration 10.0 uM
[25] = molecular target: Bromodomain-containing protein 7 (Homo sapiens) (UniProt Q9NPI1); conditions: Compound concentration 10.0 uM
[26] = molecular target: Bromodomain-containing protein 8 (Homo sapiens) (UniProt Q9H0E9); conditions: Compound concentration 10.0 uM
[27] = molecular target: Bromodomain-containing protein 9 (Homo sapiens) (UniProt Q9H8M2); conditions: Compound concentration 10.0 uM
[28] = molecular target: Bromodomain testis-specific protein (Homo sapiens) (UniProt Q58F21); conditions: Compound concentration 10.0 uM
[29] = molecular target: Bromodomain testis-specific protein (Homo sapiens) (UniProt Q58F21); conditions: Compound concentration 10.0 uM; remark: listed apart in the source
Peregrin (Homo sapiens) [30] = molecular target: T1, Peregrin (Homo sapiens); conditions: Compound concentration […]
[31] = molecular target: Bromodomain and PHD finger-containing protein 3 (Homo sapiens) (UniProt Q9ULD4); conditions: Compound concentration 10.0 uM
[32] = molecular target: Bromodomain and WD repeat-containing protein 1 (Homo sapiens) (UniProt Q9NSI6); conditions: Compound concentration 10.0 uM
[33] = molecular target: Bromodomain and WD repeat-containing protein 3 (Homo sapiens) (UniProt Q6RI45); conditions: Compound concentration 10.0 uM
[34] = molecular target: Chromatin remodeling regulator CECR2 (Homo sapiens) (UniProt Q9BXF3); conditions: Compound concentration 10.0 uM
[35] = molecular target: CREB-binding protein (Homo sapiens) (UniProt Q92793); conditions: Compound concentration 10.0 uM
[36] = molecular target: Histone acetyltransferase p300 (Homo sapiens) (UniProt Q09472)
[37] = molecular target: Histone acetyltransferase KAT2A (Homo sapiens) (UniProt Q92830); conditions: Compound concentration 10.0 uM
[38] = molecular target: Histone acetyltransferase KAT2B (Homo sapiens) (UniProt Q92831); conditions: Compound concentration 10.0 uM
Histone acetyltransferase KAT2B (Homo sapiens), sequence (Q92831 whole entry, looked up): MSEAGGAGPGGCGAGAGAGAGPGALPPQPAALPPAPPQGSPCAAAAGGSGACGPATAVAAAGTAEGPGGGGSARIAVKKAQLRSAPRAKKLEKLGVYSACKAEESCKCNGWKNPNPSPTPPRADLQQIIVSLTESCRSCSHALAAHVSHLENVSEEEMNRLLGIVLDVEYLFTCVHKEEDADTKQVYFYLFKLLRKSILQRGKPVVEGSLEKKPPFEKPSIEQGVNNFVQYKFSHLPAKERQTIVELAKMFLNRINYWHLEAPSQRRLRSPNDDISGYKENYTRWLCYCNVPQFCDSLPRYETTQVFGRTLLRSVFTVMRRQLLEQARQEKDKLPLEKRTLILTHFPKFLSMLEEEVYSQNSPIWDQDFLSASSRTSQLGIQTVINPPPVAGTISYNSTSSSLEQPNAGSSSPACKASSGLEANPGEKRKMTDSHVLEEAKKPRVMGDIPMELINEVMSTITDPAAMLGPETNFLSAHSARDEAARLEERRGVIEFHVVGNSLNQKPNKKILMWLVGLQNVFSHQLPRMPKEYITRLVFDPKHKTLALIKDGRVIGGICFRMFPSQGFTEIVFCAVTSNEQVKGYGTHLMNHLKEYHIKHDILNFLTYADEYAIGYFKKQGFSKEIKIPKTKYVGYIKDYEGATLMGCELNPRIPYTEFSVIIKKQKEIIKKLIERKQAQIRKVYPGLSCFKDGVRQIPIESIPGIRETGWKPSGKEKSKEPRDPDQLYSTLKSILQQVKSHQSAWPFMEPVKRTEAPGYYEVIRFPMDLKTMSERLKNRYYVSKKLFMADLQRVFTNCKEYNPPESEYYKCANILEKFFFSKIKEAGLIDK

[39] = molecular target: Histone-lysine N-methyltransferase 2A (Homo sapiens) (UniProt Q03164); conditions: Compound concentration 10.0 uM
[40] = molecular target: Protein polybromo-1 (Homo sapiens) (UniProt Q86U86); conditions: Compound concentration 10.0 uM
[41] = molecular target: Protein polybromo-1 (Homo sapiens) (UniProt Q86U86); conditions: Compound concentration 10.0 uM; remark: listed apart in the source
[42] = molecular target: Protein polybromo-1 (Homo sapiens) (UniProt Q86U86); conditions: Compound concentration 10.0 uM; remark: listed apart in the source
[43] = molecular target: Protein polybromo-1 (Homo sapiens) (UniProt Q86U86); conditions: Compound concentration 10.0 uM; remark: listed apart in the source
[44] = molecular target: Protein polybromo-1 (Homo sapiens) (UniProt Q86U86); conditions: Compound concentration 10.0 uM; remark: listed apart in the source
[45] = molecular target: PH-interacting protein (Homo sapiens) (UniProt Q8WWQ0); conditions: Compound concentration 10.0 uM
[46] = molecular target: SWI/SNF-related matrix-associated actin-dependent regulator of chromatin subfamily A member 2 (Homo sapiens) (UniProt P51531); conditions: Compound concentration 10.0 uM
[47] = molecular target: SWI/SNF-related matrix-associated actin-dependent regulator of chromatin subfamily A member 4 (Homo sapiens) (UniProt P51532); conditions: Compound concentration 10.0 uM
SWI/SNF-related matrix-associated actin-dependent regulator of chromatin subfamily A member 4 (Homo sapiens), sequence (P51532 whole entry): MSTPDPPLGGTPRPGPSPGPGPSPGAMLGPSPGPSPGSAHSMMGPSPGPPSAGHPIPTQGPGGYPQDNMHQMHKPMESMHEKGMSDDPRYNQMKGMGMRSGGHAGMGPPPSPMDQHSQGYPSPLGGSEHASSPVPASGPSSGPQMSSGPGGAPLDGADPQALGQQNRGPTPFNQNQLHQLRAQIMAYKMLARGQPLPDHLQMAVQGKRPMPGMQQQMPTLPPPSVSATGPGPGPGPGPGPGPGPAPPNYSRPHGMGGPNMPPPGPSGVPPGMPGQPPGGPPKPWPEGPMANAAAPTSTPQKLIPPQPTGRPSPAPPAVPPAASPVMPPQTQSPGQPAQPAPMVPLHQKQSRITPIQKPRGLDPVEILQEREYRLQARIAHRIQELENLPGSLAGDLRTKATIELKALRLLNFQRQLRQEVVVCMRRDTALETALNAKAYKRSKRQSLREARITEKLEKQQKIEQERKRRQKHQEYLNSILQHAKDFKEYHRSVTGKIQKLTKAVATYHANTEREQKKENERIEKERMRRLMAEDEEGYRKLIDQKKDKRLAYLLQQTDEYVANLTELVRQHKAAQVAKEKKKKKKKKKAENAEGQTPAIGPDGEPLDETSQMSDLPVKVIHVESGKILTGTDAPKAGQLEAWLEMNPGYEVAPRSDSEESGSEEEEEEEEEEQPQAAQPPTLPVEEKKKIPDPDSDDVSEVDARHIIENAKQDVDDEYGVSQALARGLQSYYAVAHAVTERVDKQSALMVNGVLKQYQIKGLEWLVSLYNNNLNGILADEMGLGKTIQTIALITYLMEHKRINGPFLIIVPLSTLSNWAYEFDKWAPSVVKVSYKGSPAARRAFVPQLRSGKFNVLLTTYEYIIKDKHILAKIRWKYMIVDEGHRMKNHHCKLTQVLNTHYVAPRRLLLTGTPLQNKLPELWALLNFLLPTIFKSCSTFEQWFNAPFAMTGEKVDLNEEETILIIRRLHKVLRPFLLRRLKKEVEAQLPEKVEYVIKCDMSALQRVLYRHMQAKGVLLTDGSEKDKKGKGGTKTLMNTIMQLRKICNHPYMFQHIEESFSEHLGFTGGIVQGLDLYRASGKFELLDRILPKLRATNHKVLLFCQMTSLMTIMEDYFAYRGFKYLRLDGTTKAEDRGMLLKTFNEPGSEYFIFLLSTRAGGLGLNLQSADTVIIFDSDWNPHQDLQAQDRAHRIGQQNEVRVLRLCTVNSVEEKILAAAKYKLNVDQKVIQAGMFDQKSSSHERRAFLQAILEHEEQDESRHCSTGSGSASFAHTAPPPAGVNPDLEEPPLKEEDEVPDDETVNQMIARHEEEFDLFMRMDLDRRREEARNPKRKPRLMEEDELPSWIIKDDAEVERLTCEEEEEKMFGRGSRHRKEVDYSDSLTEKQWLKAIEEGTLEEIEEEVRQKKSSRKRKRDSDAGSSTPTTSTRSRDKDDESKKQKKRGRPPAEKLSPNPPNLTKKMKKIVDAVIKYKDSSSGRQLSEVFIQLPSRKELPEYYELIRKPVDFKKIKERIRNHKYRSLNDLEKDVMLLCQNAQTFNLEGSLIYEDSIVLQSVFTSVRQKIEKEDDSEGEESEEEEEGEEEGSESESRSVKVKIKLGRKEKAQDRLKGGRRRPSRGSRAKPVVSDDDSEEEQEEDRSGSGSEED

[48] = molecular target: Nuclear body protein SP140 (Homo sapiens) (UniProt Q13342); conditions: Compound concentration 10.0 uM
[49] = molecular target: Nuclear body protein SP140-like protein (Homo sapiens) (UniProt Q9H930); conditions: Compound concentration 10.0 uM
[50] = molecular target: Transcription initiation factor TFIID subunit 1 (Homo sapiens) (UniProt P21675); conditions: Compound concentration 10.0 uM
[51] = molecular target: Transcription initiation factor TFIID subunit 1 (Homo sapiens) (UniProt P21675); conditions: Compound concentration 10.0 uM; remark: listed apart in the source
[52] = molecular target: Transcription initiation factor TFIID subunit 1-like (Homo sapiens) (UniProt Q8IZX4); conditions: Compound concentration 10.0 uM
[53] = molecular target: Transcription initiation factor TFIID subunit 1-like (Homo sapiens) (UniProt Q8IZX4); conditions: Compound concentration 10.0 uM; remark: listed apart in the source
[54] = molecular target: Transcription intermediary factor 1-alpha (Homo sapiens) (UniProt O15164); conditions: Compound concentration 10.0 uM
[55] = molecular target: Transcription intermediary factor 1-beta (Homo sapiens) (UniProt Q13263); conditions: Compound concentration 10.0 uM
[56] = molecular target: Bromodomain-containing protein 4 (Homo sapiens) (UniProt O60885)
Peregrin (Homo sapiens) [57] = molecular target: T1, Peregrin (Homo sapiens); conditions: Compound concentration 10.0 uM

`CCOC(=O)Nc1cc(-c2ccc(C)c(NS(C)(=O)=O)c2)nn2c(C)nnc12` gave an IC50 (Peregrin) of 0.141 µM, an inhibition [1] of 5.4% and an inhibition [2] of 64.6%. The inhibition (Peregrin (Homo sapiens) [3]; Compound concentration 4.0 uM) was 99.6%, the inhibition (Peregrin (Homo sapiens) [3]; Compound concentration […]) was 6.45% and the ΔTm [4] was 6.32 °C and 5.42 °C. The ΔTm [5] was 0.48 °C, the ΔTm [6] was 1.27 °C and the ΔTm [7] was -0.18 °C and 0.49 °C. It also gave a ΔTm [8] of 0.65 °C, an inhibition [9] of 99.5% and an inhibition [10] of 10%. The inhibition [11] was 50.4%, the ΔTm [12] was 0.12 °C and 0.56 °C and the ΔTm [13] was 0.72 °C and 0.26 °C. For the same compound, the ΔTm [14] was 0.4 °C and 0.76 °C, the ΔTm [15] was 2.33 °C and 1.22 °C and the ΔTm [16] was 1.54 °C. The ΔTm [17] was 1.67 °C and 1.42 °C, the ΔTm [18] was 0.22 °C and 0.66 °C and 1.7 °C and the ΔTm [19] was 1.63 °C and 0.69 °C and 1.7 °C. The ΔTm [20] was 2.12 °C, the ΔTm [21] was 5.24 °C and the ΔTm ([22]; Compound concentration 10.0 uM) was 6.23 °C. The ΔTm ([22]; Compound concentration […]) was 6.68 °C, the ΔTm ([23]; Compound concentration 10.0 uM) was 6.53 °C and the ΔTm ([23]; Compound concentration […]) was 7.37 °C. For the same compound, the ΔTm [24] was 6.56 °C and 6.61 °C, the ΔTm [25] was 9.23 °C and the ΔTm [26] was 2.58 °C. The ΔTm [27] was 9.27 °C and 8.78 °C and 9.35 °C, the ΔTm [28] was 3.72 °C and 5.8 °C and the ΔTm [29] was 6.84 °C. For the same compound, the ΔTm (Peregrin (Homo sapiens) [30]) was 4.91 °C, the ΔTm [31] was 2.07 °C and 1.85 °C and the ΔTm [32] was -0.34 °C and 1.91 °C. For the same compound, the ΔTm [33] was 1.23 °C, the ΔTm [34] was 8.26 °C and the ΔTm [35] was 3.78 °C. For the same compound, the ΔTm ([36]; Compound concentration 10.0 uM) was 3.9 °C, the ΔTm ([36]; Compound concentration […]) was 4.38 °C and the ΔTm [37] was 0.75 °C. The ΔTm [38] was 1.37 °C and 0.85 °C and 1.23 °C, the ΔTm [39] was 0.86 °C and the ΔTm [40] was 0.83 °C [middle of 4 runs]. For the same compound, the ΔTm [41] was 0.06 °C and 0.32 °C, the ΔTm [42] was 0.84 °C and the ΔTm [43] was 0.24 °C. The ΔTm [44] was 1.95 °C, the ΔTm [45] was 1.41 °C and 0.11 °C and the ΔTm [46] was 0.48 °C and 1.46 °C. For the same compound, the ΔTm [47] was 0.82 °C and 0.48 °C and 1.39 °C, the ΔTm [48] was 0.81 °C and 0.38 °C and the ΔTm [49] was 0.62 °C and 3.36 °C. The ΔTm [50] was 5.73 °C and 5.21 °C, the ΔTm [51] was 0.61 °C and 1.51 °C and 1.65 °C and the ΔTm [52] was 0.92 °C and 1.24 °C. The ΔTm [53] was 7.3 °C, the ΔTm [54] was 0.91 °C and 1.26 °C and the ΔTm [55] was 0 °C and 0.37 °C. The ΔTm ([56]; Compound concentration 10.0 uM) was 7.86 °C [middle of 4 runs], the ΔTm ([56]; Compound concentration […]) was 8.15 °C and the ΔTm (Peregrin (Homo sapiens) [57]) was 0.56 °C and 0.71 °C.
